# Counter-ions that a name gives are not always drawn. Active and inactive are the calls of the source. The rule behind the calls is not given here.
# Experiments:
# L6 [1] = experiment: Induction of glucose uptake in serum-starved rat L6 myotubes at 20 uM by luminescence based microplate reader analysis; assay type: functional, cell-based
# [2] = Thiol (sulfhydryl) reactivity of compound assessed as change in absorbance at 200 uM at pH 7.4 aqueous buffer measured upto 24 hrs in presence of DTT; assay type: ADME; settings: pH 7.4, 24 h
# [3] = target: T1, Phosphatidylinositol 3,4,5-trisphosphate 5-phosphatase 2 (Rattus norvegicus) (UniProt Q9WVR3); experiment: Inhibition of SHIP2 in serum-starved rat L6 myotubes assessed as increase in phosphorylated Akt to total Akt level at 20 to 40 uM incubated for 24 hrs by ELISA; assay type: cell-based; settings: dose 20-40 µM
# T1 sequence (whole entry): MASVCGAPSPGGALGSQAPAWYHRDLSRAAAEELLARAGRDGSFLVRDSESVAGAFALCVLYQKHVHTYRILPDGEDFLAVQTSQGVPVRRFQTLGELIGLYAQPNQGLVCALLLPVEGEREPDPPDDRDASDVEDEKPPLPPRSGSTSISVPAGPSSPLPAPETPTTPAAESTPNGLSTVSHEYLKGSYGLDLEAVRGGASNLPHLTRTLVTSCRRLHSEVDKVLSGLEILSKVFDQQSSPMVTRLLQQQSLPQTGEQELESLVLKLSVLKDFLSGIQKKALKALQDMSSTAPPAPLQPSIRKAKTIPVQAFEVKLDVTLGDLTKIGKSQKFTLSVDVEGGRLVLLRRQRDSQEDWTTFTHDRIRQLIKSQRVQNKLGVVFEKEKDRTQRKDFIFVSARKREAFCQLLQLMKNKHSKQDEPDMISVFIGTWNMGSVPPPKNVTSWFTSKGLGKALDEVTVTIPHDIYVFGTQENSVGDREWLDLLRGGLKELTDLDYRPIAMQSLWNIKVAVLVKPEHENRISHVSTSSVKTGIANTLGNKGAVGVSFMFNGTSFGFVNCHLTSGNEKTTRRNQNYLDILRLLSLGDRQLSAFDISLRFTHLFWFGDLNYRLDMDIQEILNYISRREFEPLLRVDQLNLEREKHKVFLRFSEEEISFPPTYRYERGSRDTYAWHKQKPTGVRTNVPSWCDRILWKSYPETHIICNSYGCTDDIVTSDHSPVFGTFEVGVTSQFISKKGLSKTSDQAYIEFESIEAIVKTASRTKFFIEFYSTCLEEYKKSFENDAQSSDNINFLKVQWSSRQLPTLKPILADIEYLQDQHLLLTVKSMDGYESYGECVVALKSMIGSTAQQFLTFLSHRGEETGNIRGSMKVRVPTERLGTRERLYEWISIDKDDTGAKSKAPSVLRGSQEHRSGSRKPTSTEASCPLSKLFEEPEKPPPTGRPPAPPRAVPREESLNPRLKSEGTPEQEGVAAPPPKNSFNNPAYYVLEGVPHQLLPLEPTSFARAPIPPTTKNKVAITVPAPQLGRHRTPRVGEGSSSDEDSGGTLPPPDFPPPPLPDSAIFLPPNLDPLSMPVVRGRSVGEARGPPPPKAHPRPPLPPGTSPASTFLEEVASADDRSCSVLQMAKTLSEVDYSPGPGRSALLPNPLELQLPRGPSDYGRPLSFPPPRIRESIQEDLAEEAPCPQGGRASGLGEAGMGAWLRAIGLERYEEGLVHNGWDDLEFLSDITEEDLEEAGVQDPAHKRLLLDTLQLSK
# L6 [4] = experiment: Insulin sensitizing activity in rat L6 myotubes assessed as increase in glucose uptake by measuring fold change at 2 mM preincubated with compound for 18 hrs followed by insulin addition and measured after 15 mins by luminescence based microplate reader analysis; assay type: functional; settings: time 18.25 hrs
# L6 [5] = experiment: Induction of glucose uptake in serum-starved rat L6 myotubes at 2 mM by luminescence based microplate reader analysis; assay type: functional, cell-based
# [6] = Thiol (sulfhydryl) reactivity of compound assessed as change in absorbance at 200 uM at pH 7.4 aqueous buffer measured at 1 to 24 hrs in presence of DTT; assay type: ADME; settings: pH 7.4, 200 µM, time 1-24 hrs
# [7] = Apparent permeability of the compound across apical to basolateral side in human Caco-2 cells at 30 uM incubated for 60 mins by LC analysis; assay type: ADME, cell-based
Activity [2],inhibition [3],Activity [6],"Papp A→B at 1 h, 30 µM [7] [×10⁻⁶ cm/s]",SMILES,Activity (L6 [1]),fold change (FC) (L6 [4]),Activity (L6 [5])
Not Active,Active,–,–,CN(C)CCCn1cc(/C=C2\Oc3cc(OCCN4CCCCC4)ccc3C2=O)c2ccccc21,inactive,–,–
Not Active,Active,–,25.3,O=C1/C(=C/c2cn(CCN3CCCCC3)c3ccccc23)Oc2cc(OCCN3CCCCC3)ccc21,inactive,–,–

# The remaining lines, values behind:
SMILES,Activity [2],inhibition [3],Activity [6],"Papp A→B at 1 h, 30 µM [7] [×10⁻⁶ cm/s]",Activity (L6 [1]),fold change (FC) (L6 [4]),Activity (L6 [5])
O=C1/C(=C/c2cn(CCN3CCOCC3)c3ccccc23)Oc2cc(OCCN3CCCCC3)ccc21,Not Active,Active,–,–,inactive,–,–
CN(C)C(=N)NC(=N)N [METFORMIN],–,–,–,–,–,1.6,inactive
COC(=O)/C=C/C(=O)OC [DIMETHYL FUMARATE],–,–,Active,–,–,–,–

# Reference: ChEMBL document CHEMBL5532754, “Discovery of aurones bearing two amine functionalities as SHIP2 inhibitors with insulin-sensitizing effect in rat myotubes” (RSC Med Chem, 2024)
